CNC(=O)c1cc(Oc2ccc(N)cc2)ccn1
solubility (mole fraction)
Conditions	in THF	in acetone	in acetonitrile	in acetylacetone	in dichloromethane	in ethyl acetate	in methanol	in n-butanol	in n-propanol	in water
278.15 K	0.0919	0.046	0.0286	0.0202	0.00511	0.0568	0.00985	0.0041	0.00552	0.000327
283.15 K	0.0992	0.0481	0.033	0.0214	0.00821	0.0667	0.0126	0.0047	0.00674	0.00035
288.15 K	0.108	0.0514	0.0401	0.0232	0.0139	0.0793	0.0162	0.00592	0.00879	0.000387
293.15 K	0.119	0.0558	0.0497	0.0256	0.0211	0.0939	0.0212	0.00796	0.0114	0.000438
298.15 K	0.13	0.0616	0.0601	0.0285	0.0297	0.112	0.0285	0.0101	0.0145	0.000506
303.15 K	0.144	0.0683	0.0737	0.0321	0.0413	0.131	0.0378	0.0135	0.0185	0.000598
308.15 K	0.159	0.0766	0.091	0.0367	0.0549	0.154	0.0497	0.0174	0.0241	0.000715
313.15 K	0.174	0.086	0.11	0.042	0.0727	0.181	0.0642	0.0225	0.0312	0.000857
318.15 K	0.194	0.0975	0.134	0.048	0.0947	0.209	0.0825	0.0287	0.0398	0.00106
323.15 K	0.214	0.112	0.161	0.0558	0.123	0.242	0.106	0.0369	0.0507	0.00133
